Assay results taken from US20240150377A1, “MODULATORS OF CYSTIC FIBROSIS TRANSMEMBRANE CONDUCTANCE REGULATOR” (VERTEX PHARMACEUTICALS INCORPORATED, priority 2020, published 2024).

Tests used:
CFTR [1] = biological target: T1, CFTR (Homo sapiens, UniProt P13569, DEL508-508); experiment: HBE assay: Ussing chamber assay of CFTR-mediated short-circuit currents; type: cell-based; conditions: HBE assay; for activation at 10 µM: read-out: HBE Activity at 10 μM (%); for EC50: read-out: HBE EC50; for Emax: read-out: HBE Max activity (%)
T1 construct: endogenous in cells; host or cells: primary human bronchial epithelial cells from CF subjects (F508del/MF-HBE), differentiated at air-liquid interface
T1 sequence (P13569 with tags, fused parts or gaps DEL508-508): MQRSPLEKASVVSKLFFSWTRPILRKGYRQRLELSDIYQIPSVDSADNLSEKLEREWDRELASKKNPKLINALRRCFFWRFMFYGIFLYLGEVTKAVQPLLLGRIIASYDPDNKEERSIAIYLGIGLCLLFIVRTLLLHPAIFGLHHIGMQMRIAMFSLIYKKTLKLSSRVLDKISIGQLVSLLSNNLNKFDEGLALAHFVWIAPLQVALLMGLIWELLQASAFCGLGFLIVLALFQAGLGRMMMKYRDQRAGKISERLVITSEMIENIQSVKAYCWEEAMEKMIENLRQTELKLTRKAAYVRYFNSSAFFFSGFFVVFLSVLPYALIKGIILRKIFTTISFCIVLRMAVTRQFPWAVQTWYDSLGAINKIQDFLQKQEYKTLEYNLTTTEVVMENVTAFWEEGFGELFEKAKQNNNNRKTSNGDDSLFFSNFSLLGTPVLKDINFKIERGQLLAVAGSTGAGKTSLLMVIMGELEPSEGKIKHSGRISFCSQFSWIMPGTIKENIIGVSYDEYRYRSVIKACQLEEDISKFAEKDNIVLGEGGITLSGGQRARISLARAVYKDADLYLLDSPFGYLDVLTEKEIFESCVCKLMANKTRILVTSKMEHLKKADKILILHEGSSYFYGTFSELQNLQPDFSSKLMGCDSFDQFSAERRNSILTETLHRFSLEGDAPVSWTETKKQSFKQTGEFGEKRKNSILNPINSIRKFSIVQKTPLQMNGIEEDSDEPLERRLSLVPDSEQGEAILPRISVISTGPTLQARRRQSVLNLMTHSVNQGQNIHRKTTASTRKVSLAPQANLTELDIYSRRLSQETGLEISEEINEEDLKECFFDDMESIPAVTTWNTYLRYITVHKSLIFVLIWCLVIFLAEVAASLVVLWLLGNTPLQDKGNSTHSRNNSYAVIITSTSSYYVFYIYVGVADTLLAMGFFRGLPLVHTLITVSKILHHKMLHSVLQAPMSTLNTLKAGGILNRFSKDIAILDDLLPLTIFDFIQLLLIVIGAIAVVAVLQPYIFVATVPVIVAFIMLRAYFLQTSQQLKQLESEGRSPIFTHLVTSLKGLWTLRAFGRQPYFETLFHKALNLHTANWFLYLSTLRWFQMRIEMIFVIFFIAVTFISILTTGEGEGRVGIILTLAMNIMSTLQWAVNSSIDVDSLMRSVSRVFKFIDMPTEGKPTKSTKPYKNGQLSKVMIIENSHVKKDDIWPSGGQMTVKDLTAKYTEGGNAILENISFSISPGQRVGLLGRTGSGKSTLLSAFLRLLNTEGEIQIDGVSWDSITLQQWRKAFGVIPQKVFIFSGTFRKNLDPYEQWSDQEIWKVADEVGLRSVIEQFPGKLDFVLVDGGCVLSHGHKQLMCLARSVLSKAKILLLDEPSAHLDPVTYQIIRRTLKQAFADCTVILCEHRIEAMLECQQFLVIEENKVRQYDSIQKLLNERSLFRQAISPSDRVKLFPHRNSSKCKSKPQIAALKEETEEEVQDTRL
In short: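 CFTR-mediated Isc (μA/cm²) equals the peak response to apical 20 μM forskolin minus the residual after a 20 μM each BPO/GlyH-101/CFTR inhibitor 172 cocktail, recorded in Ussing chambers at Vhold 0 mV, 37 °C, pH 7.4, with 30 μM apical amiloride. Cells were F508del/MF HBE cultures preincubated 18-24 h with corrector (concentration range or 10 μM) plus 1 μM ivacaftor in 20% human serum.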

CFTR [2] = biological target: T1, CFTR; experiment: HBE2 assay: Ussing chamber assay of CFTR-mediated short-circuit currents; type: cell-based; conditions: F508del/MF-HBE cells, with 44 nM potentiator, 18-24 hours, 20% human serum; for Emax: read-out: HBE2 Max activity (%)
In short: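 Corrector activity read as CFTR-dependent ISC (μA/cm^2): peak forskolin current minus post-inhibitor steady state. Measured at 37 °C, voltage clamp at 0 mV, on F508del/MF-HBE epithelia grown >14 days air-liquid interface in Ussing chambers.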

Row | Compound | HBE2 Activity at 3 μM (%) (CFTR [2]; 3 μM) | HBE2 Activity at 3 μM (%) (CFTR [2]; 3 μM corrector) | also measured
1 | Cc1cccc(C)c1-c1cc2nc(n1)NS(=O)(=O)c1cccc(c1)C(=O)N(Cc1ncc(N3CC(C)(C)C3)cn1)[C@H](CC(C)(C)C(F)(F)F)CO2 [Compound 1520] | +++ (+++ is >60+) |  | activation at 10 µM (CFTR [1]): > 60%
2 | CC[C@@H]1CCCN1c1cncc(CN2C(=O)c3cccc(c3)S(=O)(=O)Nc3nc(cc(-c4c(C)cccc4C)n3)OC[C@H]2CC(C)(C)C)n1 [Compound 1496] | +++ (+++ is >60+) |  | EC50 (CFTR [1]): < 1 µM; Emax (CFTR [1]): > 60%
3 | Cc1cccc(C)c1-c1cc2nc(n1)NS(=O)(=O)c1cccc(c1)C(=O)N(Cc1ccc3cc(C4CC4)n(C)c3n1)[C@H](CC(C)(C)C)CO2 [Compound 1304, (11R)-12-[(2-Cyclopropyl-1-methyl-pyrrolo[2,3-b]pyridin-6-yl)methyl]-6-(2,6-dimethylphenyl)-11-(2,2-dimethylpropyl)-2,2-dioxo-9-oxa-2λ^6-thia-3,5,12,19-tetrazatricyclo[12.3.1.14,8]nonadeca-1(18),4(19),5,7,14,16-hexaen-13-one] | +++ (+++ is >60+) |  | activation at 10 µM (CFTR [1]): > 60%
4 | Cc1cccc(C)c1-c1cc2nc(n1)NS(=O)(=O)c1cccc(c1)C(=O)N(Cc1ncc(N3CC(C)(C)C3)cn1)[C@H](CC1(C(F)(F)F)CC1)CO2 [Compound 1529] | +++ (+++ is >60+) |  | activation at 10 µM (CFTR [1]): > 60%
5 | COCC1(CN(C)c2cncc(CN3C(=O)c4cccc(c4)S(=O)(=O)Nc4nc(cc(-c5c(C)cccc5C)n4)OC[C@H]3CC(C)(C)C)n2)CC1 [Compound 1492] | +++ (+++ is >60+) |  | activation at 10 µM (CFTR [1]): > 60%; EC50 (CFTR [1]): < 1 µM; Emax (CFTR [1]): > 60%
6 | COC(=O)N(C)c1cnc(CN2C(=O)c3cccc(c3)S(=O)(=O)Nc3nc(cc(-c4c(C)cccc4C)n3)OC[C@H]2CC(C)(C)C)nc1 [Compound 1517] | +++ (+++ is >60+) |  | activation at 10 µM (CFTR [1]): > 60%
7 | Cc1cccc(C)c1-c1cc2nc(n1)NS(=O)(=O)c1cccc(c1)C(=O)N(Cc1cncc(N3CCC4CCC43)n1)[C@H](COC1CC1)CO2 (stereo in doubt) [Compound 1909] |  | +++ (+++ is >60+) | 
8 | Cc1cccc(C)c1-c1cc2nc(n1)NS(=O)(=O)c1cccc(c1)C(=O)N(Cc1ncc(N3CC(C)(C)C3)cn1)[C@H](CC1CCC1)CO2 [Compound 1594] |  |  | EC50 (CFTR [2]): < 1 µM; Emax (CFTR [2]): > 60%
9 | Cc1cccc(C)c1-c1cc2nc(n1)NS(=O)(=O)c1cccc(c1)C(=O)N(Cc1cncc(N(C)C3CC4CCC43)n1)[C@H](CC(C)(C)C)CO2 (stereo partly drawn) [Compound 1784] |  | +++ (+++ is >60+) | 
10 | Cc1cccc(C)c1-c1cc2nc(n1)NS(=O)(=O)c1cccc(c1)C(=O)N(Cc1cncc(N(C)C3CCC3)n1)[C@H](CC(C)C)CCO2 [Compound 1770] |  | +++ (+++ is >60+) | 
11 | COC[C@@H]1CCN1c1cncc(CN2C(=O)c3cccc(c3)S(=O)(=O)Nc3nc(cc(-c4c(C)cccc4C)n3)OC[C@H]2CC2CC2)n1 [Compound 1786] |  | +++ (+++ is >60+) | 
12 | COC[C@@H]1CCCN1c1cncc(CN2C(=O)c3cccc(c3)S(=O)(=O)Nc3nc(cc(-c4c(C)cccc4C)n3)OC[C@H]2CC2CCCCC2)n1 [Compound 1867] |  | +++ (+++ is >60+) | 
13 | CCc1cc2ncc(CN3C(=O)c4cccc(c4)S(=O)(=O)Nc4nc(cc(-c5c(C)cccc5C)n4)OC[C@H]3CC(C)(C)C)nc2n1C [Compound 1911] |  | +++ (+++ is >60+) | 
14 | Cc1cccc(C)c1-c1cc2nc(n1)NS(=O)(=O)c1cccc(c1)C(=O)N(Cc1cncc(N(C)C3CCC3)n1)[C@H](CCC1CC1)CO2 [Compound 1684] | +++ (+++ is >60+) |  | EC50 (CFTR [2]): < 1 µM; Emax (CFTR [2]): > 60%
15 | COC(=O)N(C)c1cncc(CN2C(=O)c3cccc(c3)S(=O)(=O)Nc3nc(cc(-c4c(C)cccc4C)n3)OC[C@H]2CC(C)(C)C)n1 [Compound 1582] | +++ (+++ is >60+) |  | 
16 | Cc1cccc(C)c1-c1cc2nc(n1)NS(=O)(=O)c1cccc(c1)C(=O)N(Cc1cncc(N(C)CCOC(C)(C)C)n1)[C@H](CC(C)(C)C)CO2 [Compound 1650] | +++ (+++ is >60+) |  | 
17 | Cc1cccc(C)c1-c1cc2nc(n1)NS(=O)(=O)c1cccc(c1)C(=O)N(Cc1cncc(N(C)C3CCC3)n1)[C@H](C1CC(C)(C)C1)CO2 (stereo in doubt) [Compound 1896] |  | +++ (+++ is >60+) | 

Row | Compound | HBE2 Activity at 3 μM (%) (CFTR [2]; 3 μM) | HBE2 Activity at 3 μM (%) (CFTR [2]; 3 μM corrector) | also measured
18 | Cc1cccc(C)c1-c1cc2nc(n1)NS(=O)(=O)c1cccc(c1)C(=O)N(Cc1cnc3cc(C(C)C)n(C)c3n1)[C@H](CCC(C)C)CO2 [Compound 1827] |  | +++ (+++ is >60+) | 
19 | Cc1cccc(C)c1-c1cc2nc(n1)NS(=O)(=O)c1cccc(c1)C(=O)N(Cc1cncc(N3CC[C@H]3C)n1)[C@H](CC(C)(C)F)CO2 [Compound 1801] |  | +++ (+++ is >60+) | 
20 | Cc1cccc(C)c1-c1cc2nc(n1)NS(=O)(=O)c1cccc(c1)C(=O)N(Cc1cncc(N(C)C3CCC3)n1)[C@@H]1CN(CC(C)(C)C)CC1O2 (stereo in doubt) [Compound 1740] |  | ++ (++ is 30-60%) | 
21 | Cc1cccc(C)c1-c1cc2nc(n1)NS(=O)(=O)c1cccc(c1)C(=O)N(Cc1cncc(N3CCC[C@H]3C(C)C)n1)[C@H](CC1(C)CCC1)CO2 [Compound 1775] |  | +++ (+++ is >60+) | 
22 | Cc1cccc(C)c1-c1cc2nc(n1)NS(=O)(=O)c1cccc(c1)C(=O)N(Cc1cncc(N3CCCC[C@H]3C)n1)[C@H](CC1CC1)CO2 [Compound 1792] |  | +++ (+++ is >60+) | 
23 | Cc1cccc(C)c1-c1cc2nc(n1)NS(=O)(=O)c1cccc(c1)C(=O)N(Cc1cncc(N3CCC[C@H]3C)n1)[C@H](CC1CC1)CO2 [Compound 1787] |  | +++ (+++ is >60+) | 
24 | Cc1cccc(C)c1-c1cc2nc(n1)NS(=O)(=O)c1cccc(c1)C(=O)N(Cc1cnc3cc(C(C)C)oc3n1)[C@H](CC(C)(C)C)CO2 [Compound 1882] |  | +++ (+++ is >60+) | 
25 | Cc1cccc(C)c1-c1cc2nc(n1)NS(=O)(=O)c1cccc(c1)C(=O)N(Cc1cncc(N(C)C3CCC3)n1)[C@H](C(C)(C)C)CO2 [Compound 1732] |  | +++ (+++ is >60+) | 
26 | Cc1cccc(C)c1-c1cc2nc(n1)NS(=O)(=O)c1cccc(c1)C(=O)N(Cc1cncc(N(C)C3CCC3)n1)[C@H](CC(C)(C)C(F)(F)F)CO2 [Compound 1689] | +++ (+++ is >60+) |  | EC50 (CFTR [2]): < 1 µM; Emax (CFTR [2]): > 60%
27 | Cc1cccc(C)c1-c1cc2nc(n1)NS(=O)(=O)c1cccc(c1)C(=O)N(Cc1cncc(N3CCC[C@H]3C(C)C)n1)[C@H](COC1CC1)CO2 [Compound 1341, (11R)-11-(Cyclopropoxymethyl)-6-(2,6-dimethylphenyl)-12-[[6-[(2S)-2-isopropylpyrrolidin-1-yl]pyrazin-2-yl]methyl]-2,2-dioxo-9-oxa-2^6-thia-3,5,12,19-tetrazatricyclo[12.3.1.14,8]nonadeca-1(18),4(19),5,7,14,16-hexaen-13-one] |  | +++ (+++ is >60+) | 
28 | Cc1cccc(C)c1-c1cc2nc(n1)NS(=O)(=O)c1cccc(c1)C(=O)N(Cc1ccnc(N(C)C3CCC3)n1)[C@H](CC(C)(C)C)CO2 [Compound 1616] | +++ (+++ is >60+) |  | 
29 | CCN(c1nc(CN2C(=O)c3cccc(c3)S(=O)(=O)Nc3nc(cc(-c4c(C)cccc4C)n3)OC[C@H]2CC(C)(C)C)co1)C1CCC1 [Compound 1645] | +++ (+++ is >60+) |  | 
30 | Cc1cccc(C)c1-c1cc2nc(n1)NS(=O)(=O)c1cccc(c1)C(=O)N(Cc1cnc3ccn(C)c3n1)[C@H](CC(C)(C)C)CO2 [Compound 1853] |  | +++ (+++ is >60+) | 
31 | CC[C@@]1(COC)CCCN1c1cccc(CN2C(=O)c3cccc(c3)S(=O)(=O)Nc3nc(cc(-c4c(C)cccc4C)n3)OC[C@H]2CC(C)(C)C)n1 [Compound 1617] | +++ (+++ is >60+) |  | 
32 | Cc1cccc(C)c1-c1cc2nc(n1)NS(=O)(=O)c1cccc(c1)C(=O)N(Cc1cncc(N(C)C3CCC3)n1)[C@H](CC1CC3(CCC3)C1)CO2 [Compound 1682] | +++ (+++ is >60+) |  | 
33 | Cc1cccc(C)c1-c1cc2nc(n1)NS(=O)(=O)c1cccc(c1)C(=O)N(Cc1cncc(N3CCCO[C@H]4CC[C@H]43)n1)[C@H](CC(C)(C)C)CO2 (stereo in doubt) [Compound 1951] |  | +++ (+++ is >60+) | 
34 | Cc1cccc(C)c1-c1cc2nc(n1)NS(=O)(=O)c1cccc(c1)C(=O)N(Cc1cc(NC(=O)OC(C)(C)C)cc(N(C)C3CCC3)n1)[C@H](CC(C)(C)C)CO2 [Compound 1929] |  | +++ (+++ is >60+) | 
